The conditions of series [1]: 298.15 K; 101.33 kPa; Liquid; Vibrating tube method.
Series [2] in a line: refractive index (Na D-line) (dimensionless). The settings on record: 298.15 K; 101.33 kPa; Liquid; Standard Abbe refractometry.

Numbers after ± are expanded uncertainties.

As for `Cc1ccccc1` [toluene], the mass density in series [1] is listed as 862.18 ± 0.13 kg/m3. Besides, the refractive index in series [2] is 1.49367 ± 0.00035.
Take `CCCCCC` [hexane]: the mass density in series [1] was 655.09 ± 0.26 kg/m3. Besides, in series [2], the refractive index worked out at 1.37236 ± 0.00039.
Regarding `CCCCCC[n+]1ccc(C)cc1C.O=S(=O)([N-]S(=O)(=O)C(F)(F)F)C(F)(F)F`, the mass density in series [1] amounted to 1339.39 ± 1.6 kg/m3. The refractive index in series [2] is recorded as 1.45336 ± 0.00052.
For `c1ccsc1` [thiophene], the mass density in series [1] is given as 1058.61 ± 0.12 kg/m3. Moreover, the refractive index in series [2] was 1.52523 ± 0.00035.
On to `c1ccncc1` [pyridine], for which, in series [1], the mass density is listed as 978.24 ± 0.1 kg/m3. The refractive index in series [2] came to 1.50636 ± 0.00035.

As usually defined, the mass density is mass per unit of volume. A word on the refractive index: it is a measure of how strongly the sample bends light.

(Values after the NIST ThermoML archive (doi:10.1016/j.fluid.2011.10.017).)
